Measured values published in patent publication US12285403B2, “A2-73 as a therapeutic for insomnia, anxiety and agitation” (Anavex Life Sciences Corp., priority 2016, dated 2025).

Assays:
[1] = Systolic blood pressure monitored over the first 25 days of dosing in AD subjects; format: in vivo, human
Method: An additional benefit of the therapeutic regimen disclosed herein is the beneficial control of systolic blood pressure in AD subjects taking daily oral dosages of A2-73 of from about 10 mg to about 50 mg. Systolic blood pressure was monitored over the first 25 days of dosing. A1-41 and A19-144 are similarly useful therapeutics.

[2] = Safety, tolerability and patient retention, Phase 2a study; format: in vivo, human
Excerpt: The safety and efficacy of A2-73 has been studied Phase 2a Study in mild-moderate Alzheimer's disease patients. […] Without being bound by any particular theory, it is believed that A2-73 activates the stress-reducing and survival protein, the Sigma-1 receptor. The data of Table 1 is from an open-label, clinical trial, performed on a group of 30 mild-to-moderate AD patients (MMSE range 16-23, 40% female) on donepezil treatment, with […] 2-73. […]

Q: For CN(C)CC1CCOC1(c1ccccc1)c1ccccc1.Cl (centres unmarked) [A2-73, tetrahydro-N,N-dimethyl-2,2-diphenyl-3-furanmethanamine hydrochloride], which “Change in mean systolic BP, baseline to Day 25” value (from here on “Change in mean systolic BP”) ([1]; Hypertension Stage 1: 140-159 mm Hg) is on record?
A: Its value is −16 mm Hg.

Q: What about the “Day 25 Mean systolic BP ±SD” value ([1]; Hypertension Stage 1: 140-159 mm Hg, baseline 145 ± 3) of the same compound?
A: The value was 129 ± 12 mm Hg.

Q: And the “Change in mean systolic BP” value ([1]; Hypertension Stage 2: 160-179 mm Hg)?
A: The value was −22 mm Hg.

Q: What about the “Day 25 Mean systolic BP ±SD” value ([1]; Hypertension Stage 2: 160-179 mm Hg, baseline 170 ± 8) of the same compound?
A: The value was 148 ± 19 mm Hg.

Q: What about the “Change in mean systolic BP” value ([1]; Hypertensive crisis >180 mm Hg) of the same compound?
A: Its value is −27 mm Hg.

Q: What about the “Day 25 Mean systolic BP ±SD” value ([1]; Hypertensive crisis >180 mm Hg, baseline 185 ± 0) of the same compound?
A: The value was 159 ± 43 mm Hg.

Q: And the “Change in mean systolic BP” value ([1]; Pre Hypertension 120-139 mm Hg)?
A: The value was −9 mm Hg.

Q: What about the “Day 25 Mean systolic BP ±SD” value ([1]; Pre Hypertension 120-139 mm Hg, baseline 131 ± 6) of the same compound?
A: Its value is 122 ± 15 mm Hg.

Q: What about the “Change in mean systolic BP” value ([1]; baseline classification <120 mm Hg) of the same compound?
A: Its value is 8 mm Hg.

Q: What about the “Day 25 Mean systolic BP ±SD” value ([1]; baseline classification <120 mm Hg, baseline 115 ± 2, oral daily 10-50 mg) of the same compound?
A: The value was 123 ± 11 mm Hg.

Q: And the “Systolic blood pressure in subjects with high-normal systolic blood pressure” value ([1]; first 25 days of dosing)?
A: Its value is “rose”.

Q: What about the “Systolic blood pressure in hypertensive subjects” value ([1]; first 25 days of dosing, greater reduction for increasingly hypertensive subjects) of the same compound?
A: Its value is “significantly reduced”.

Q: What about the “Adverse event: headache” value ([2]; 30 mg) of the same compound?
A: The value was 10%.

Q: And the “Adverse event: mild dizziness” value ([2]; 30 mg)?
A: The value was 5%.

Q: And the “Changes in clinical labs and EKGs” value ([2]; 30 mg)?
A: The value was “no significant changes”.

Q: And the Tolerability ([2]; 30 mg)?
A: Its Tolerability is “well tolerated”.

Q: What about the “Safety and tolerability/risk profile” value ([2]; 32 patients with mild-to-moderate AD, Phase 2a) of the same compound?
A: Its value is “favorable safety and tolerability/risk profile”.
